Key:
[1] = test system: IL-4 promoter; assay: IL-4 luciferase reporter assay in Jurkat cells; type: cell-based, human; conditions: PRMT1 with NFATc2 and c-Maf, PMA/ionomycin stimulation
Procedure: FIGS. 11A-11C depict the effects of MTA on T helper cytokine production. (A) T helper cells were isolated from the lymph nodes of DO11.10 TCR transgenic mice and grown under Th1 or Th2 conditions for 7 days. Th1 and Th2 cells were treated with PMA/ionomycin for 3 hrs or pretreated with 1 mM MTA for 60 min prior to PMA/ionomycin stimulation. RNA was isolated with analyzed by RNase protection analysis for transcript level of indicated cytokines. L32 and GAPDH included in the multitemplate probe set served as an internal control. (B) Cells were grown as in (A) either pretreated with 1 mM MTA or left untreated and intracellular cytokine analysis was performed after stimulation with PMA/ionomycin for 2 hrs and an additional 2 hrs with […] monensin. (C) MTA inhibits IL-4 promoter activity. Jurkat cells were transfected with IL-4 reporter vector (2.5 μg) and expression vectors for c-Maf (2.5 μg), NFATc2 (2.5 μg), and PRMT1 (10 μg) along with a TK-renilla luciferase vector (5 ng) as an internal control. Transfectants were left unstimulated or pretreated with 1 mM MTA before a 6 hr PMA/ionomycin stimulation. Luciferase values were calculated relative to TK renilla luciferase internal controls and are expressed relative to unstimulated reporter activity. Similar results were obtained in at least three independent experiments. […]

[2] = test system: NFAT reporter element; assay: NFAT consensus site luciferase reporter assay in Jurkat cells; type: cell-based, human; conditions: PRMT1 with NFATc2
Procedure: FIGS. 13A-13D depict the regulation of the IFNγ and IL-4 promoters by PRMT1. (A) Jurkat cells were transfected with the 9.2 kb IFNγ luciferase reporter 5 μg) and expression vectors for T-bet (5 μg) and PRMT1 (10 μg). Cells were unstimulated or stimulated with PMA/ionomycin for 6 hrs prior to luciferase assays. (B) Jurkat cells were transfected with the IL-4 luciferase reporter (2.5 μg) and expression vectors for NFATc2 (2.5 μg), c-Maf (2.5 μg), and PRMT1 (10 μg). Cells were treated as in (A). (C) Jurkat cells were transfected with the IL-4 luciferase reporter (2.5 μg) and expression vectors for JunB (2.5 μg), c-Maf (2.5 μg), and PRMT1 (10 μg). Cells were treated as in (A). (D) Jurkat cells were transfected with an luciferase reporter driven by NFAT consensus sites and expression vectors for NFATc2 (2.5 μg) and PRMT1 (10 μg). Cells were treated as in (A). (Luciferase units were normalized to TK-renilla luciferase activity. Results are representative to at least three independent experiments.)
The IL-4 promoter contains several composite NFAT/AP-1 sites. Whether PRMT1 coactivation is mediated through NFAT or AP-1 factors was investigated as both NFAT and JunB are involved in the regulation of IL-4 promoter activity (Li, B., et al. (1999) EMBO J 18:420-432). […]

[3] = test system: NFAT4; assay: Nuclear translocation of NFAT4 by immunofluorescence in HepG2 cells; type: cell-based; parameters: key: Subcellular localization of NFAT4 in the cytoplasm is indicated by a (−); nuclear translocation of NFAT4 is indicated by (^+); conditions: 1 μM ionomycin
Procedure: The effect of NIP45 on the nuclear translocation of NFAT4 also was investigated. HepG2 cells were transfected with either NFAT4 or NFAT4 plus NIP45 and stimulated the following day with 1 μM ionomycin for 0, 2, 4, 8 or 15 minutes. For one sample, the cells were stimulated for 15 minutes with ionomycin and then washed with fresh media and allowed to rest for an additional 15 minutes (indicated as “15 min.^+15 min. rest” in Table 1). This analysis is designed to examine the function of NIP45 as a nuclear retention factor. […] All samples were then fixed and analyzed by immunofluorescence for translocation of NFAT4 as described above. Subcellular localization of NFAT4 in the cytoplasm is indicated by a (−) and nuclear translocation of NFAT4 is indicated by (^+).

Compound	IL-4 promoter activity over NFATc2/c-Maf only [1] [fold]	augmentation of NFATc2 transactivation of an NFAT reporter element [2]	Nuclear Translocation of NFAT4 ([3]; 0 min.)	Nuclear Translocation of NFAT4 ([3]; 8 min.)	Nuclear Translocation of NFAT4 ([3]; 15 min.)	Nuclear Translocation of NFAT4 ([3]; 15 min. + 15 min. rest in fresh media)
PRMT1: type I protein arginine methyltransferase (SEQ ID NO:10), expressed from a transfected expression vector	5	approximately 10 fold				
C[C@H](CCC(=O)O)C[C@H](C)C[C@H](C)C(=O)/C=C(\O)[C@H](C)C[C@H](C)C/C=C/[C@@H](C)[C@@H](O)[C@@H](C)[C@@H](O)C[C@@H]1CC[C@@](C)([C@H]2CC[C@@](C)([C@@H](C)O)O2)O1 [Ionomycin, ionomycin]			−	+	+	−

— patent US20090048117A1, “MODULATION OF IMMUNE SYSTEM FUNCTION BY MODULATION OF POLYPEPTIDE ARGININE METHYLTRANSFERASES” (President and Fellows of Harvard College, priority 2003, published 2009)
